Key:
HIV-1 strain IIIb [1] = assay: Viral intake and release: cell-free HIV-1 taken up by epithelial monolayer, supernatant titrated on MT4 cells; format: cell-based
Description: Epithelial cells were obtained from biopsies of the gingiva of a healthy donor. The biopsies were washed several times with phosphate-buffered saline and cultured after trypsinization in Dulbecco modified Eagle medium containing 10% fetal calf serum (FCS). Fibroblast growth was suppressed by the addition of recombinant epidermal growth factor (10 μg/liters Sigma, Deisenhofen, Germany) to the culture medium. The epithelial character of the primary cells and the formation of tight junctions were confirmed morphologically by electron microscopy.
(§1) HIV-1 strain IIIb (1,8×10^4 50% tissue culture infective doses [TCID50/ml]) harvested from HIV-1 infected H9 cells was cleared from all debris by centrifugation (10 min. 200×g) and filtered through a 0,2 μm pore size filter membrane. The cell-free virus was diluted 1:10 with Hanks buffer and was placeed in the apical compartment (for details see below). After a 45 min incubation, medium from the lower compartment was harvested. The amount of infectious HIV-1 in the basal chamber of the culture unit was determined by a standard tritation assay Tritation of HIV was performed in triplicate in 24-well tissue culture plates on MT 4 cells seeded at a concentration of 2×10^4/ml. Samples were diluted serially (1:10) in culture medium (RPMI 1640 supplemented with 10% FCS and 5% glutamine). The titration was evaluated between 10 and 14 days postinfection when a prominent cytopathic effect (CPE) was visible. Medium was replaced twice a week with cells being diluted as required. Values of TCID50 per milliliter were determined as described in Reed C. J. et al., 1938, Am. J. Hyg., 27, 494.497. All experiments were performed in triplicate.
HIV-1 strain IIIb (1,8×10^5 TCID50/ml) was placed on epithelial cells (10^6/petri dish). […] After a 1-h incubation, the cells were washed three times with trysin (0,25%) and incubated for 10 min at 37° C. with trypsin solution to inactivate all virus particles adsorbed at the cell surface. The cells were harvested and subcultured for different incubation times (see. Table 1). Subsequently, the cell-free supermatant of each subculture was titrated on MT4 cells as described above.
For the data in Table 1 HIV-1 strain IIIb (1,8×10^4 TCID50/ml) was placed on epithelial cells (10^6/petri dish) with or without inhibitors. After a 1-h incubation the cells were treated with trypsin to inactivate all extracellular HIV particles. Cells were incubated with fresh medium and the supernatants were harvested at different time points. Infectious virus in the supernatant was titrated on MT4 cells (see Materials and Methods). All experiments were performed in triplicate. The differences between the infectious titers with and without inhibitors are highly significant for all incubation times (P<0.001 by the Mann Whitney U test).

HIV-1 strain IIIb [2] = assay: Viral transepithelial transport in two-compartment culture system; format: cell-based; details: 45 min. incubation; for amount of infectious HIV 1 in the basal compartment: without inhibitor 10^3
Description: For transepithelial transport experiments, primary epitheilal cells (10^4/ml) were grown on a polycarbonate filter membrane (9 mm diameter 3,0 μm pore diameter, Becon Dickinson) separating a basal and an apical chamber and cultivated for 10 days until confluence was observed. The development of an epithelial monolayer was examined by confocal laser microscopy. To further test for confluence a fluorescein solution (0,2 mg/ml) or fluorescent paricles (10^6 particles/ml each particle 0,1 μm in diameter) were added to the apical chamber and fluorescence activity in the basal chambers was measured after 45 min of incubation at 4° C. to inhibit cell membrane diffusion. For calibration of paracellular diffusion membranes were covered with a layer of 15% polyacrylamide gel leaving free circular areas by placing small cylinders of defined size on the filter before gel casting. Fluorescence activity which diffused from the apical to the basal chamber through different areas of uncovered epithelial cells was measured after the 45 min. incubation.
as §1
The HIV-1 specificity of the CPE in MT4 cells was confirmed by determination of p24 core protein content by a p24 antigen capture assay (Coulter). […] Experiments were done in triplicate.

[3] = test system: transport of gp120 coated particles through the epithelial monolayer; assay: Transepithelial transport of gp120-coated fluorescent particles; format: cell-based, human; details: for transport of gp120-coated particles, % of the level for unstimulated cells: FSK- and IBMX-treated cells
From the text: For transepithelial transport studies gp120 was covalently coupled to monodispersed carboxylated fluorescent microparticles (0,1 μm in diameter; Polysciences, Warlington, Pa.) as described previously (Molday R. S., 1975, J. Cell Biol., 64, 75-88). The active groups of the control beads and the remaining gp120 coated beads were blocked with glycine. The attachment of gp120 to the fluoresent particles was quantified by measuring the binding of a monoclonal anti-HIV gp120 antibody to the beads.
The gp120-coated particles were diluted (10^5 partices/ml) in Hanks buffer and placed in the apical chamber after the epithelial cells were washed three times with Hanks buffer. The apical chamber was transferred into a new basal chamber, and Hanks buffer was changed after 10, 40, 90 min of incubation. The buffer harvested at the indicated time points was centrifuged (14.000×g for 15 min), the pellet was resuspended and the fluorescence activity was measured. A combination of forskolin (FSK 10 μM ) and 3-isobutyl-1-methyl-xantin (IBMX, 10 μm) was used to study the effect of cyclic AMP (cAMP) and epithelial transport. Preincubation of the epithelial cells for 2 h increased the intracellular cAMP level eightfold (cAMP immunoassay: Biomol, Plymouth Meeting, Pa.). Glycine-coated microparticles were used as the control for nonspecific paracellular flow under the experimental conditions: the fluorescence of the controls was subtracted from the fluorescence-activities found in the respective experiments with gp120-coated particles.
After incubation for 10, 40 and 90 min at 37° C., the solution in the basal chamber was changed and the fluorescence activity was measured as described above.
To increase the amount of high-mannose-type glycans on the epithelial cells, cells were preincubated for 2 h with 10 mM desoxymannojirimycin (Fuhrmann U. E., 1984, Nature, 307, 755-788). To control the increase of high-mannose-type glycan expression, the filter membrane was cut and placed in 300 μl of lysis buffer (0,2 M Tris-HCl, 2% SDS, 0,1% dithiothreitol). […]

Compound: CO[C@H]1O[C@H](CO)[C@@H](O)[C@H](O)[C@@H]1O [aMMP, α-methyl-mannopyramoside]
- HIV concn in the supernatant after treatm. (HIV-1 strain IIIb [1]; aMMP (100 mM), 60 min. after trypsin treatm.): 10^1 TCID50/ml
- HIV concn in the supernatant after treatm. (HIV-1 strain IIIb [1]; aMMP (100 mM), 120 min. after trypsin treatm.): 10^1 TCID50/ml
- HIV concn in the supernatant after treatm. (HIV-1 strain IIIb [1]; aMMP (100 mM), 160 min after trypsin treatm.): 10^1 TCID50/ml
- HIV concn in the supernatant after treatm. (HIV-1 strain IIIb [1]; aMMP (100 mM), 24 h after trypsin treatm.): 10^1 TCID50/ml
- reduction of the amount of infectious HIV 1 in the basal compartment (HIV-1 strain IIIb [2]; aMMP (100 mM)): 1 order of magnitude
- amount of infectious HIV 1 in the basal compartment (HIV-1 strain IIIb [2]; preincubation with aMMP (100 mM)): 10^2 TCID50/ml
- transport of gp120-coated particles, % of the level for unstimulated cells ([3]; aMMP 100 mM final concentration): about 50%

Compound: OC[C@H]1NC[C@@H](O)[C@@H](O)[C@@H]1O [desoxymannojirimycin, reference compound]
- effect on the cAMP-stimulated increase of particles in the basal compartment (in words) ([3]; 2 h preincubation with 10 mM desoxymannojirimycin, FSK/IBMX stimulated cells): further augmentation

Compound: Mucin
- HIV concn in the supernatant after treatm. (HIV-1 strain IIIb [1]; Mucin (1 mM), 60 min. after trypsin treatm.): 10^1 TCID50/ml
- HIV concn in the supernatant after treatm. (HIV-1 strain IIIb [1]; Mucin (1 mM), 120 min. after trypsin treatm.): 10^1 TCID50/ml
- HIV concn in the supernatant after treatm. (HIV-1 strain IIIb [1]; Mucin (1 mM), 160 min after trypsin treatm.): 10^1 TCID50/ml
- HIV concn in the supernatant after treatm. (HIV-1 strain IIIb [1]; Mucin (1 mM), 24 h after trypsin treatm.): 10^1 TCID50/ml
- inhibition of viral uptake and release of cell-free HIV-1 (in words) (HIV-1 strain IIIb [1]; Table 1): significantly inhibit
- amount of infectious HIV 1 in the basal compartment (HIV-1 strain IIIb [2]; mucin (30 mg/ml per method)): 10^2 TCID50/ml

Compound: mannan
- HIV concn in the supernatant after treatm. (HIV-1 strain IIIb [1]; Mannan (5 mM), 60 min. after trypsin treatm.): 10^0 TCID50/ml
- HIV concn in the supernatant after treatm. (HIV-1 strain IIIb [1]; Mannan (5 mM), 120 min. after trypsin treatm.): 10^1 TCID50/ml
- HIV concn in the supernatant after treatm. (HIV-1 strain IIIb [1]; Mannan (5 mM), 160 min after trypsin treatm.): 10^1 TCID50/ml
- HIV concn in the supernatant after treatm. (HIV-1 strain IIIb [1]; Mannan (5 mM), 24 h after trypsin treatm.): 10^1 TCID50/ml
- reduction of the amount of infectious HIV 1 in the basal compartment (HIV-1 strain IIIb [2]; mannan (5 mM)): 1 order of magnitude
- amount of infectious HIV 1 in the basal compartment (HIV-1 strain IIIb [2]; preincubation with mannan (5 mM)): 10^2 TCID50/ml
- transport of gp120-coated particles, % of the level for unstimulated cells ([3]; mannan 5 mg/ml final concentration): about 50%

Reference: patent US20040063624A1, “Method of inhibiting the transition of free HIV virus through the cllular mucosal barrier” (priority 1999, published 2004)
